Source: patent publication US20250325552A1, “SUBSTITUTED THIADIAZOLYL DERIVATIVES AS DNA POLYMERASE THETA INHIBITORS” (IDEAYA Biosciences, Inc., priority 2020, published 2025)

Target: Polθ theta (1-899) (hPolQ) (Homo sapiens (Human), UniProt O75417)
Test: Biological Assay 1: Polθ ATPase activity, NADH oxidation-coupled enzymatic assay (10 nM enzyme, 30 min)
Type: biochemical
Conditions: Polθ (1-899) 10 nM, 100 μM ATP, 300 nM dT50 ssDNA; Examples 1 to 268; read-out: ATPase NADH coupling:Standard Screening:hPolQ IC50
Method in brief: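 Polθ (1-899) at 10 nM was preincubated with compound for 15 min at room temperature in 20 mM Tris pH 7.80, 80 mM KCl, 10 mM MgCl2. An equal volume of 100 μM ATP, 300 nM dT50 ssDNA and a PK/LDH–NADH coupling system was then added. A340 was read each minute for 30 min. IC50 came from rate slopes over 10-point series with a four-parameter fit.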

Polθ theta (1-899) (hPolQ), sequence (O75417 1-899): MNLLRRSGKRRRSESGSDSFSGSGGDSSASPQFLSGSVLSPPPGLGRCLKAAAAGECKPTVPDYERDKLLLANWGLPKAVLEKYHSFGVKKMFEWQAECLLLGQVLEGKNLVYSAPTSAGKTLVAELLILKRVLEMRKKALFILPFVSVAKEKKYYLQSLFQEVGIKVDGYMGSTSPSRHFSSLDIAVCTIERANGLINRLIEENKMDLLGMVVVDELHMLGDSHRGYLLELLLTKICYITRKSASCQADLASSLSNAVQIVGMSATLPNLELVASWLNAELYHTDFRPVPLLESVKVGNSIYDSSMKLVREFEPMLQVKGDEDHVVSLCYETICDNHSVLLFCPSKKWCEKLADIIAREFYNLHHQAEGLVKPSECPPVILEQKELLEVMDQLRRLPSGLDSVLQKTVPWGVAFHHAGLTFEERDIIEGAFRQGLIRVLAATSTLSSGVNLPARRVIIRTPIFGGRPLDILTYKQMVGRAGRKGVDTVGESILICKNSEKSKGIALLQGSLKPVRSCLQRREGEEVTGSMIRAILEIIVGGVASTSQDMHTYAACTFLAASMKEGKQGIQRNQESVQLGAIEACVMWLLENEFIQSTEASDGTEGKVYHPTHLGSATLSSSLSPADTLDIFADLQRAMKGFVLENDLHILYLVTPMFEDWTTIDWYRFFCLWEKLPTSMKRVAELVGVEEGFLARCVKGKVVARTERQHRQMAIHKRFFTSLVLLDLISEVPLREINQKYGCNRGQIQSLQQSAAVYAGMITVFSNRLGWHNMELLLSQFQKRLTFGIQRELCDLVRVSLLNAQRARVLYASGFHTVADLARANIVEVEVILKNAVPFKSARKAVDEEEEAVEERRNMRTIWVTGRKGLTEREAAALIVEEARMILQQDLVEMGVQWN

| SMILES | IC50 |
| --- | --- |
| COc1ccccc1-c1cc(C)ncc1C(=O)Nc1nnc(OCc2ccc(C3(CO)CC3)cn2)s1 [Example 7, N-(5-((5-(1-(hydroxymethyl)cyclopropyl)pyridin-2-yl)methoxy)-1,3,4-thiadiazol-2-yl)-4-(2-methoxyphenyl)-6-methylnicotinamide] | ≤ 200 nM |
| COc1cccc(F)c1-c1cc2cnc(C)n2cc1C(=O)Nc1nnc(OC[C@H]2CC[C@H](O)CC2)s1 [Example 195, 7-(2-fluoro-6-methoxyphenyl)-N-(5-(((1r,4r)-4-hydroxycyclohexyl)methoxy)-1,3,4-thiadiazol-2-yl)-3-methylimidazo(1,5-a)pyridine-6-carboxamide] | ≤ 200 nM |
| COc1cnc(Cl)cc1-c1cc(C)ncc1C(=O)Nc1nnc(OC[C@H]2CC[C@H](O)CC2)s1 [Example 129, 2′-chloro-N-(5-(((1r,4r)-4-hydroxycyclohexyl)methoxy)-1,3,4-thiadiazol-2-yl)-5′-methoxy-6-methyl-[4,4′-bipyridine]-3-carboxamide] | ≤ 200 nM |
| COc1cnc(Cl)cc1-c1cc(C)ncc1C(=O)Nc1nnc(OC[C@@H]2CCC[C@H]2O)s1 (single isomer, unassigned) [Example 255, 2′-chloro-N-(5-((2-hydroxycyclopentyl)methoxy)-1,3,4-thiadiazol-2-yl)-5′-methoxy-6-methyl-(4,4′-bipyridine)-3-carboxamide] | ≤ 200 nM |
| COc1cnc(Cl)cc1-c1cc(C)ncc1C(=O)Nc1nnc(OCC2CCOC2C)s1 (stereo not drawn) [Example 177, 2′-chloro-5′-methoxy-6-methyl-N-(5-((2-methyltetrahydrofuran-3-yl)methoxy)-1,3,4-thiadiazol-2-yl)-(4,4′-bipyridine)-3-carboxamide] | ≤ 200 nM |
| COc1cnc(Cl)cc1-c1cc(C)ncc1C(=O)Nc1nnc(OC[C@H]2CC[C@](C)(O)CC2)s1 [Example 214, 2′-chloro-N-(5-(((1r,4r)-4-hydroxy-4-methylcyclohexyl)methoxy)-1,3,4-thiadiazol-2-yl)-5′-methoxy-6-methyl-(4,4′-bipyridine)-3-carboxamide] | ≤ 200 nM |
| COc1cccc(F)c1-c1cc(C)ncc1C(=O)Nc1nnc(OCC2CC3(CC(O)C3)C2)s1 (stereo not drawn) [Example 141, 4-(2-fluoro-6-methoxyphenyl)-N-(5-((6-hydroxyspiro(3.3)heptan-2-yl)methoxy)-1,3,4-thiadiazol-2-yl)-6-methylpyridine-3-carboxamide] | ≤ 200 nM |
| COc1cnc(C)c(F)c1-c1cc(C)ncc1C(=O)Nc1nnc(OC[C@H]2CC[C@H](O)CC2)s1 [Example 212, 3′-fluoro-N-(5-(((1r,4r)-4-hydroxycyclohexyl)methoxy)-1,3,4-thiadiazol-2-yl)-5′-methoxy-2′,6-dimethyl-(4,4′-bipyridine)-3-carboxamide] | ≤ 200 nM |
| COc1cccc(F)c1-c1cc(C)ncc1C(=O)Nc1nnc(OCc2ccc(C(C)(C)C#N)cn2)s1 [Example 88, N-(5-((5-(2-cyanopropan-2-yl)pyridin-2-yl)methoxy)-1,3,4-thiadiazol-2-yl)-4-(2-fluoro-6-methoxyphenyl)-6-methylnicotinamide] | ≤ 200 nM |
| COc1cnc(Cl)cc1-c1cc(C)ncc1C(=O)Nc1nnc(OCC23CCC(O)(CC2)C3)s1 [Example 218, 2′-chloro-N-(5-((4-hydroxybicyclo(2.2.1)heptan-1-yl)methoxy)-1,3,4-thiadiazol-2-yl)-5′-methoxy-6-methyl-(4,4′-bipyridine)-3-carboxamide] | ≤ 200 nM |
| COc1cnc(Cl)cc1-c1cc(C)ncc1C(=O)Nc1nnc(OCC2COC3(COC3)C2)s1 (stereo not drawn) [Example 225, N-(5-((2,5-dioxaspiro(3.4)octan-7-yl)methoxy)-1,3,4-thiadiazol-2-yl)-2′-chloro-5′-methoxy-6-methyl-(4,4′-bipyridine)-3-carboxamide] | ≤ 200 nM |
| COc1cnc(Cl)cc1-c1cc(C)ncc1C(=O)Nc1nnc(OC[C@@H]2CC[C@H](O)C2)s1 (single isomer, unassigned) [Example 211] | ≤ 200 nM |
| COc1cnc(Cl)cc1-c1cc(C)ncc1C(=O)Nc1nnc(OC[C@@H]2COC[C@H]2C)s1 (single isomer, unassigned) [Example 266] | ≤ 200 nM |
| COc1cnc(Cl)cc1-c1cc(C)ncc1C(=O)Nc1nnc(OC[C@@H]2CCOC2(C)C)s1 (single isomer, unassigned) [Example 191] | ≤ 200 nM |
| COc1cnc(Cl)cc1-c1cc(C)ncc1C(=O)Nc1nnc(OC[C@@H]2COC(C)(C)CO2)s1 (single isomer, unassigned) [Example 222] | ≤ 200 nM |
| COc1ccc(COc2nnc(NC(=O)c3cnc(C)cc3-c3c(F)cccc3OC)s2)nc1 [Example 20, 4-(2-fluoro-6-methoxyphenyl)-N-(5-((5-methoxypyridin-2-yl)methoxy)-1,3,4-thiadiazol-2-yl)-6-methylpyridine-3-carboxamide] | ≤ 200 nM |
| COc1ccccc1-c1cc(C)ncc1C(=O)Nc1nnc(OCc2ncccc2CO)s1 [Example 62, N-(5-((3-(hydroxymethyl)pyridin-2-yl)methoxy)-1,3,4-thiadiazol-2-yl)-4-(2-methoxyphenyl)-6-methylpyridine-3-carboxamide] | 200 to 500 nM |
| COc1cnc(Cl)cc1-c1cc(C)ncc1C(=O)Nc1nnc(OCc2ccc3c(n2)CCOC3)s1 [Example 151, 2′-chloro-5′-methoxy-6-methyl-N-(5-(5H,7H,8H-pyrano(4,3-b)pyridin-2-ylmethoxy)-1,3,4-thiadiazol-2-yl)-(4,4′-bipyridine)-3-carboxamide] | ≤ 200 nM |
| COc1cnc(Cl)cc1-c1cc(C)ncc1C(=O)Nc1nnc(OC[C@@H]2CCO2)s1 (single isomer, unassigned) [Example 169] | ≤ 200 nM |
| COc1ccc(COc2nnc(NC(=O)c3cnc(C)cc3-c3c(F)cccc3OC)s2)nc1OC [Example 43, N-(5-((5,6-dimethoxypyridin-2-yl)methoxy)-1,3,4-thiadiazol-2-yl)-4-(2-fluoro-6-methoxyphenyl)-6-methylnicotinamide] | ≤ 200 nM |
| COc1cnc(Cl)cc1-c1cc(C)ncc1C(=O)Nc1nnc(OCC2CCC2(F)F)s1 (stereo not drawn) [Example 204, 2′-chloro-N-(5-((2,2-difluorocyclobutyl)methoxy)-1,3,4-thiadiazol-2-yl)-5′-methoxy-6-methyl-(4,4′-bipyridine)-3-carboxamide] | ≤ 200 nM |
| COc1cnc(Br)cc1-c1cc(C)ncc1C(=O)Nc1nnc(OC[C@H]2CC[C@H](O)CC2)s1 [Example 247, 2′-bromo-N-(5-(((1r,4r)-4-hydroxycyclohexyl)methoxy)-1,3,4-thiadiazol-2-yl)-5′-methoxy-6-methyl-(4,4′-bipyridine)-3-carboxamide] | ≤ 200 nM |
| COc1cnc(Cl)cc1-c1cc(C)ncc1C(=O)Nc1nnc(OC[C@@H]2CO[C@@H](CO)CO2)s1 (racemic) [Example 238, rel-2′-chloro-N-(5-(((2s,5s)-5-(hydroxymethyl)-1,4-dioxan-2-yl)methoxy)-1,3,4-thiadiazol-2-yl)-5′-methoxy-6-methyl-(4,4′-bipyridine)-3-carboxamide] | ≤ 200 nM |
| COc1cccc(F)c1-c1cc(C)ncc1C(=O)Nc1nnc(OCc2ccc(C(C)(C)O)nc2)s1 [Example 109, 4-(2-fluoro-6-methoxyphenyl)-N-(5-((6-(2-hydroxypropan-2-yl)pyridin-3-yl)methoxy)-1,3,4-thiadiazol-2-yl)-6-methylpyridine-3-carboxamide] | ≤ 200 nM |
